Key:
Phytophthora infestans = assay type: in vivo; conditions: tomato plants, protective spray, active ingredient concentration 100 ppm, evaluation 7 days after inoculation; 0% = control, 100% = no infection
[1] = for logp [a]: pH 2.7; for logp [b]: pH 7.8

CC(C)ON=Cc1cccc(C2CC(c3csc(C4CCN(C(=O)Cn5nc(C(F)F)cc5C(F)F)CC4)n3)=NO2)c1 (mixture of isomers) [I-6]
Eff. % (Phytophthora infestans): 100%

Cc1cc(C(F)(F)F)nn1CC(=O)N1CCC(c2nc(C3=NOC(c4cccc(C=NOC(C)C)c4)C3)cs2)CC1 (mixture of isomers) [I-8]
Eff. % (Phytophthora infestans): 100%

CC(=NOC(C)C)c1cccc(C2CC(c3csc(C4CCN(C(=O)Cn5nc(C(F)(F)F)cc5C)CC4)n3)=NO2)c1 (mixture of isomers) [I-9]
Eff. % (Phytophthora infestans): 100%

CCON=Cc1cccc(C2CC(c3csc(C4CCN(C(=O)Cn5nc(C(F)(F)F)cc5C)CC4)n3)=NO2)c1 (mixture of isomers) [I-11]
Eff. % (Phytophthora infestans): 100%
logp [a] [1]: 3.8[a]

CCON=Cc1cccc(C2CC(c3csc(C4CCN(C(=O)Nc5cc(Cl)ccc5C)CC4)n3)=NO2)c1 (mixture of isomers) [I-12]
Eff. % (Phytophthora infestans): 95%

Cc1ccc(Cl)cc1NC(=O)N1CCC(c2nc(C3=NOC(c4cccc(C=NOC(C)C)c4)C3)cs2)CC1 (mixture of isomers) [I-13]
Eff. % (Phytophthora infestans): 100%
logp [a] [1]: 4.4[a]

CC(=NOC(C)C)c1cccc(C2CC(c3csc(C4CCN(C(=O)Cn5nc(C(F)F)cc5C(F)F)CC4)n3)=NO2)c1 (mixture of isomers) [I-20]
Eff. % (Phytophthora infestans): 100%

CCON=Cc1cccc(C2CC(c3csc(C4CCN(C(=O)Cn5nc(C(F)F)cc5C(F)F)CC4)n3)=NO2)c1 (mixture of isomers) [I-24]
Eff. % (Phytophthora infestans): 100%

CC(=NOC(C)C)c1ccccc1C1CC(c2csc(C3CCN(C(=O)Cn4nc(C(F)F)cc4C(F)F)CC3)n2)=NO1 (mixture of isomers) [I-28]
Eff. % (Phytophthora infestans): 100%

CC(=NOC(C)C)c1ccccc1C1CC(c2csc(C3CCN(C(=O)Cn4nc(C(F)(F)F)cc4C)CC3)n2)=NO1 (mixture of isomers) [I-30]
Eff. % (Phytophthora infestans): 100%

CCON=Cc1ccccc1C1CC(c2csc(C3CCN(C(=O)Nc4cc(Cl)ccc4C)CC3)n2)=NO1 (mixture of isomers) [I-33]
Eff. % (Phytophthora infestans): 100%

Cc1ccc(Cl)cc1NC(=O)N1CCC(c2nc(C3=NOC(c4ccccc4C=NOC(C)C)C3)cs2)CC1 (mixture of isomers) [I-37]
Eff. % (Phytophthora infestans): 100%

Cc1cc(C(F)(F)F)nn1CC(=O)N1CCC(c2nc(C3=NOC(c4ccccc4C=NOC(C)C)C3)cs2)CC1 (mixture of isomers) [I-39]
Eff. % (Phytophthora infestans): 100%

CC(C)ON=Cc1ccccc1C1CC(c2csc(C3CCN(C(=O)Cn4nc(C(F)F)cc4C(F)F)CC3)n2)=NO1 (mixture of isomers) [I-42]
Eff. % (Phytophthora infestans): 100%

COCC[S+]([O-])Cc1ccccc1C1CC(c2csc(C3CCN(C(=O)Cn4nc(C(F)F)cc4C(F)F)CC3)n2)=NO1 (mixture of isomers) [I-56]
Eff. % (Phytophthora infestans): 94%
logp [a] [1]: 2.52[a]

CC1(c2ccccc2OS(C)(=O)=O)CC(c2csc(C3CCN(C(=O)Cn4nc(C(F)F)cc4C(F)F)CC3)n2)=NO1 (racemic) [I-43]
Eff. % (Phytophthora infestans): 94%
logp [a] [1]: 3.16[a],
logp [b] [1]: 3.09[b]

Cc1cc(C(F)F)nn1CC(=O)N1CCC(c2nc(C3=NOC(C)(c4ccccc4OS(C)(=O)=O)C3)cs2)CC1 (racemic) [I-44]
Eff. % (Phytophthora infestans): 94%
logp [a] [1]: 2.86[a],
logp [b] [1]: 2.8[b]

COCCS(=O)(=O)Cc1ccccc1C1CC(c2csc(C3CCN(C(=O)Cn4nc(C(F)(F)F)cc4C)CC3)n2)=NO1 (racemic) [I-45]
Eff. % (Phytophthora infestans): 94%
logp [a] [1]: 3.64[a]

Cc1ccc(S(=O)(=O)Oc2ccccc2C2(C)CC(c3csc(C4CCN(C(=O)Cn5nc(C(F)F)cc5C(F)F)CC4)n3)=NO2)cc1 (racemic) [I-48]
Eff. % (Phytophthora infestans): 94%
logp [a] [1]: 4.31[a],
logp [b] [1]: 4.15[b]

Cc1ccc(S(=O)(=O)Oc2ccccc2C2(C)CC(c3csc(C4CCN(C(=O)Cn5nc(C(F)F)cc5C)CC4)n3)=NO2)cc1 (racemic) [I-49]
Eff. % (Phytophthora infestans): 94%
logp [a] [1]: 4.05[a],
logp [b] [1]: 3.9[b]

CS(=O)(=O)Oc1ccc(F)c(C2CC(c3csc(C4CCN(C(=O)Cn5nc(C(F)F)cc5C(F)F)CC4)n3)=NO2)c1F (racemic) [I-50]
Eff. % (Phytophthora infestans): 94%
logp [a] [1]: 2.95[a],
logp [b] [1]: 2.88[b]

Cc1cc(C(F)F)nn1CC(=O)N1CCC(c2nc(C3=NOC(c4ccccc4OS(C)(=O)=O)C3)cs2)CC1 (racemic) [I-51]
Eff. % (Phytophthora infestans): 97%
logp [a] [1]: 2.59[a],
logp [b] [1]: 2.61[b]

Cc1ccc(C)c(NC(=O)N2CCC(c3nc(C4=NOC(c5c(Cl)cccc5OS(C)(=O)=O)C4)cs3)CC2)c1 (racemic) [I-52]
Eff. % (Phytophthora infestans): 94%
logp [a] [1]: 3.35[a],
logp [b] [1]: 3.25[b]

N#CCOc1ccc(Cl)cc1C1CC(c2csc(C3CCN(C(=O)Cn4nc(C(F)F)cc4C(F)F)CC3)n2)=NO1 (racemic) [I-58]
logp [a] [1]: 3.27[a],
logp [b] [1]: 3.23[b]

CS(=O)(=O)Oc1ccc(Cl)cc1C1CC(c2csc(C3CCN(C(=O)Cn4nc(C(F)F)cc4C(F)F)CC3)n2)=NO1 (racemic) [I-59]
logp [a] [1]: 3.27[a],
logp [b] [1]: 3.25[b]

O=C(Cn1nc(C(F)F)cc1C(F)F)N1CCC(c2nc(C3=NOC(c4ccccc4OCC#Cc4cccc5ccccc45)C3)cs2)CC1 (stereo not shown) [I-2]
Eff. % (Phytophthora infestans): 100%
logp [a] [1]: 4.81[a],
logp [b] [1]: 4.68[b]

Cc1ccc(C2CC(c3csc(C4CCN(C(=O)Cn5nc(C(F)(F)F)cc5C)CC4)n3)=NO2)c(OS(C)(=O)=O)c1 (stereo not shown) [I-66]
logp [a] [1]: 3.26[a],
logp [b] [1]: 3.21[b]

Cc1ccc(OS(C)(=O)=O)c(C2CC(c3csc(C4CCN(C(=O)Cn5nc(C(F)F)cc5C(F)F)CC4)n3)=NO2)c1 (stereo not shown) [I-67]
logp [a] [1]: 3.22[a],
logp [b] [1]: 3.11[b]

C#CCOCc1cccc(F)c1C1CC(c2csc(C3CCN(C(=O)Cn4nc(C(F)F)cc4C(F)F)CC3)n2)=NO1 (stereo not shown) [I-68]
logp [a] [1]: 3.3[a]

CC(=O)OCc1cccc(F)c1C1CC(c2csc(C3CCN(C(=O)Cn4nc(C(F)F)cc4C(F)F)CC3)n2)=NO1 (stereo not shown) [I-69]
logp [a] [1]: 3.12[a]

Cc1ccc(C2CC(c3csc(C4CCN(C(=O)Cn5nc(C(F)F)cc5C(F)F)CC4)n3)=NO2)c(OS(C)(=O)=O)c1 (stereo not shown) [I-72]
logp [a] [1]: 3.2[a],
logp [b] [1]: 3.12[b]

Cc1cc(C(F)F)n(CC(=O)N2CCC(c3nc(C4=NOC(c5ccccc5OS(C)(=O)=O)C4)cs3)CC2)n1 (stereo not shown) [I-73]
logp [a] [1]: 2.65[a],
logp [b] [1]: 2.58[b]

Cc1cc(C(F)(F)F)nn1CC(=O)N1CCC(c2nc(C3=NOC(c4c(F)ccc(OS(C)(=O)=O)c4F)C3)cs2)CC1 (stereo not shown) [I-79]
logp [a] [1]: 3.02[a],
logp [b] [1]: 2.94[b]

N#CCOc1ccc(F)c(C2CC(c3csc(C4CCN(C(=O)Cn5nc(C(F)F)cc5C(F)F)CC4)n3)=NO2)c1F (stereo not shown) [I-80]
logp [a] [1]: 2.96[a],
logp [b] [1]: 2.85[b]

COc1cccc(OS(C)(=O)=O)c1C1(C)CC(c2csc(C3CCN(C(=O)Cn4nc(C(F)F)cc4C(F)F)CC3)n2)=NO1 (stereo not shown) [I-88]
logp [a] [1]: 3.17[a],
logp [b] [1]: 3.11[b]

COCC[S+]([O-])Cc1ccccc1C1CC(c2csc(C3CCN(C(=O)Cn4nc(C(F)(F)F)cc4C)CC3)n2)=NO1 (stereo not shown) [I-90]
logp [a] [1]: 2.53[a]

Cc1cc(OS(C)(=O)=O)c(C2(C)CC(c3csc(C4CCN(C(=O)Cn5nc(C(F)F)cc5C(F)F)CC4)n3)=NO2)cc1C (stereo not shown) [I-91]
logp [a] [1]: 3.63[a],
logp [b] [1]: 3.58[b]

COc1ccc(OS(C)(=O)=O)c(C2(C)CC(c3csc(C4CCN(C(=O)Cn5nc(C(F)F)cc5C(F)F)CC4)n3)=NO2)c1OC (stereo not shown) [I-92]
logp [a] [1]: 3.28[a],
logp [b] [1]: 3.25[b]

CCS(=O)(=O)Oc1ccc(C2CC(c3csc(C4CCN(C(=O)Cn5nc(C(F)F)cc5C(F)F)CC4)n3)=NO2)cc1 (stereo not shown) [I-105]
logp [a] [1]: 2.97[a],
logp [b] [1]: 2.96[b]

O=C(Cn1nc(C(F)F)cc1C(F)F)N1CCC(c2nc(C3=NOC(c4ccc(OS(=O)(=O)C5CC5)cc4)C3)cs2)CC1 (stereo not shown) [I-106]
logp [a] [1]: 3.06[a],
logp [b] [1]: 3.05[b]

Cc1ccc(OCC#N)c(C2CC(c3csc(C4CCN(C(=O)Cn5nc(C(F)F)cc5C(F)F)CC4)n3)=NO2)c1 (stereo not shown) [I-141]
logp [a] [1]: 3.17[a],
logp [b] [1]: 3.15[b]

Cc1ccc(C2CC(c3csc(C4CCN(C(=O)Cn5nc(C(F)(F)F)cc5C)CC4)n3)=NO2)c(OCC#N)c1 (stereo not shown) [I-142]
logp [a] [1]: 3.29[a],
logp [b] [1]: 3.22[b]

Cc1cc(C(F)F)nn1CC(=O)N1CCC(c2nc(C3=NOC(c4ccccc4OCC#N)C3)cs2)CC1 (stereo not shown) [I-143]
logp [a] [1]: 2.6[a],
logp [b] [1]: 2.61[b]

Cc1ccc(C2CC(c3csc(C4CCN(C(=O)Cn5nc(C(F)F)cc5C(F)F)CC4)n3)=NO2)c(OCC#N)c1 (stereo not shown) [I-144]
logp [a] [1]: 3.15[a],
logp [b] [1]: 3.13[b]

CS(=O)(=O)Oc1c(Cl)cccc1C1CC(c2csc(C3CCN(C(=O)Cn4nc(C(F)F)cc4C(F)F)CC3)n2)=NO1 (stereo not shown) [I-145]
logp [a] [1]: 3.19[a],
logp [b] [1]: 3.19[b]

N#CCOc1c(Cl)cccc1C1CC(c2csc(C3CCN(C(=O)Cn4nc(C(F)F)cc4C(F)F)CC3)n2)=NO1 (stereo not shown) [I-146]
logp [a] [1]: 3.14[a],
logp [b] [1]: 3.26[b]

— patent US9930890B2 (priority 2010, dated 2018)
